Measured values taken from US6521814B1, “Use of ligands for treatment of diseases responsive to retinoids” (Institut National de la Santa et de la Recherche Medicale, priority 1997, dated 2003).

Key:
Type in all cases: cell-based, murine
RXRα−/−/RARα−/− F9 cells [1] = assay: Proliferation of F9 cells in monolayer culture (cell counting, [3H]thymidine incorporation, cell cycle FACS); conditions: 6 d
RARα−/− F9 cells [2] = assay: Apoptosis of F9 cells (Hoechst 33258 staining, FACS); parameters: key: (−): no visible effect; conditions: 6 d
Method: (§1) Apoptosis was analyzed by both Hoechst staining of nuclei and FACS® analysis, as previously described (Clifford, J., et al., EMBO J. 15:4142-4155 (1996)).

RARα−/− F9 cells [3] = assay: Morphological differentiation of F9 cell aggregates into visceral endoderm (VE)-like cells (morphology, RT-PCR of markers); parameters: key to proportion of outer layer of cells displaying VE morphology: +++: more than 80%; ++: 50-80%; +: 10-50%; ±: not more than 10%; (−): no visible effect; conditions: 10 d
Excerpt: (§2) Similarly, after 10 d of treatment, >80% of the outer layer of RARα^−/− and RXRα^−/−/RARα^−/− cell aggregates differentiated into VE-like cells, which were indistinguishable from those of WT and RXRα^−/− cells (FIG. 23A, compare f with panels b and d; and Table 9). […] To exclude the possibility that this very poor differentiation of the RXRα^−/−/RARγ^−/− cells could be due to some clonal variation, rather than the presence of the RXRα-null mutation in the RARγ-null background, we expressed the RXRα cDNA in RXRα^−/−/RARγ^−/− cells.
(§3) F9 cells were cultured and induced to differentiate into primitive, parietal and visceral endoderm-like cells as previously described (Boylan, J., et al., Proc. Natl. Acad. Sci. USA 90:9601-9605 (1993); Clifford, J., et al., EMBO J. 15:4142-4155 (1996)).
(§4) RNA preparation, RT-PCR, and Southern blotting were performed as previously described (Bouillet, P., et al., Dev. Biol. 170:420-433 (1995); Roy, B., et al., Mol. Cell. Biol. 15:6481-6487 (1995)). The PCR primers and end-labeled oligonucleotide probes for collagen IVα1, laminin B1, α-fetoprotein (AFP), and 36B4, were described previously (Clifford, J., et al ., EMBO J. 15:4142-4155 (1996)). Transcript levels were quantified using a BAS 2000 bioimaging analyzer (Fuji Ltd., Tokyo, Japan), and were normalized to the corresponding 36B4 signals.

WT F9 cells [4] = assay: as above; parameters: key to proportion of outer layer of cells displaying VE morphology: +++: more than 80%; ++: 50-80%; +: 10-50%; ±: not more than 10%; (−): no visible effect; conditions: WT, 10 d
Excerpt: as §2, §3, §4

RARγ−/− F9 cells [5] = assay: Proliferation of F9 cells in monolayer culture (cell counting, [3H]thymidine incorporation, cell cycle FACS); conditions: 6 d
Method: (§5) Cells were plated in triplicate 3-cm culture wells (5×10^2 cells per well), and cell counting experiments were performed as previously described (Clifford, J., et al., EMBO J. 15:4142-4155 (1996)). [^3H]Thymidine incorporation assays were performed essentially as described (Clifford, J., et al., EMBO J. 15:4142-4155 (1996)), with the following modifications. […] The cell cycle profile of WT and mutant cells was determined as previously described (Clifford, J., et al. EMBO J. 15:4142-4155 (1996)).

RARα−/− F9 cells [6] = assay: as above; conditions: 6 d
Method: as §5

WT F9 cells [7] = assay: as above; conditions: 6 d
Method: as §5

RXRα−/− F9 cells [8] = assay: as above; conditions: 6 d
RARγ−/− F9 cells [9] = assay: Morphological differentiation of F9 cell aggregates into visceral endoderm (VE)-like cells (morphology, RT-PCR of markers); parameters: key to proportion of outer layer of cells displaying VE morphology: +++: more than 80%; ++: 50-80%; +: 10-50%; ±: not more than 10%; (−): no visible effect; conditions: RARγ−/−, 10 d
Method: as §3, §4

RXRα−/−/RARγ−/− F9 cells = assay: Proliferation of F9 cells in monolayer culture (cell counting, [3H]thymidine incorporation, cell cycle FACS); conditions: 6 d
RARγ−/− F9 cells [10] = assay: Apoptosis of F9 cells (Hoechst 33258 staining, FACS); conditions: 6 d
Method: as §1

WT F9 cells [11] = assay: as above; conditions: 6 d
Method: as §1

RXRα−/− F9 cells [12] = assay: as above; conditions: 100 nM, 6 d
RXRα−/−/RARα−/− F9 cells [13] = assay: as above; conditions: 100 nM, 6 d
RXRα−/−/RARα−/− F9 cells [14] = assay: Morphological differentiation of F9 cell aggregates into visceral endoderm (VE)-like cells (morphology, RT-PCR of markers); conditions: RXRα−/−/RARα−/−, 10 d
Excerpt: (§6) Transcript levels were quantified using a BAS 2000 bioimaging analyzer (Fuji Ltd., Tokyo, Japan), and were normalized to the corresponding 36B4 signals.

RXRα−/− F9 cells [15] = assay: as above; conditions: 10 d
Excerpt: as §6

Structure (SMILES) | number of cells in percent relative to cells grown in 0.1% ethanol (RXRα−/−/RARα−/− F9 cells [1]; 10 nM) [%] | number of cells in percent relative to cells grown in 0.1% ethanol (RXRα−/−/RARα−/− F9 cells [1]; 100 nM) [%] | proportion of apoptotic nuclei and subcellular fragments (Hoechst 33258) (RARα−/− F9 cells [2]; 100 nM) | proportion of outer layer of cells displaying VE morphology (RARα−/− F9 cells [3]; 100 nM) | proportion of outer layer of cells displaying VE morphology (WT F9 cells [4]; 10 nM) | proportion of outer layer of cells displaying VE morphology (WT F9 cells [4]; 100 nM) | number of cells in percent relative to cells grown in 0.1% ethanol (RARγ−/− F9 cells [5]; 10 nM) [%] | number of cells in percent relative to cells grown in 0.1% ethanol (RARγ−/− F9 cells [5]; 100 nM) [%] | number of cells in percent relative to cells grown in 0.1% ethanol (RARα−/− F9 cells [6]; 10 nM) [%] | number of cells in percent relative to cells grown in 0.1% ethanol (RARα−/− F9 cells [6]; 100 nM) [%] | number of cells in percent relative to cells grown in 0.1% ethanol (WT F9 cells [7]; 10 nM) [%] | number of cells in percent relative to cells grown in 0.1% ethanol (WT F9 cells [7]; 100 nM) [%] | number of cells in percent relative to cells grown in 0.1% ethanol (RXRα−/− F9 cells [8]; 10 nM) [%] | number of cells in percent relative to cells grown in 0.1% ethanol (RXRα−/− F9 cells [8]; 100 nM) [%] | proportion of outer layer of cells displaying VE morphology (RARγ−/− F9 cells [9]; 10 nM) | proportion of outer layer of cells displaying VE morphology (RARγ−/− F9 cells [9]; 100 nM) | number of cells in percent relative to cells grown in 0.1% ethanol (RXRα−/−/RARγ−/− F9 cells; 10 nM) [%] | number of cells in percent relative to cells grown in 0.1% ethanol (RXRα−/−/RARγ−/− F9 cells; 100 nM) [%] | proportion of apoptotic nuclei and subcellular fragments (Hoechst 33258) (RARγ−/− F9 cells [10]; 100 nM) | proportion of apoptotic nuclei and subcellular fragments (Hoechst 33258) (WT F9 cells [11]; 100 nM) | also measured
CC1(C)C(=O)C(C)(C)c2cc(C(=O)Nc3ccc(C(=O)O)cc3)ccc21 [RARα agonist] | 100 | 100 | (−) | (−) | (−) | (−) | 100 | 100 | 100 | 100 | 100 | 100 | 100 | 100 | (−) | ± (not more than 10%) | 124 | 143 | (−) | (−) | 
CC1(C)CC=C(c2ccccc2)c2cc(/C=C/c3ccc(C(=O)O)cc3)ccc21 [RARβ agonist] |  |  |  |  |  |  |  |  |  |  |  |  |  |  |  |  |  |  |  |  | number of cells in percent relative to cells grown in 0.1% ethanol (RXRα−/−/RARα−/− F9 cells [1]; 500 nM): 100%; proportion of apoptotic nuclei and subcellular fragments (Hoechst 33258) (RARα−/− F9 cells [2]; 500 nM): (−); proportion of outer layer of cells displaying VE morphology (RARα−/− F9 cells [3]; 500 nM): (−); proportion of outer layer of cells displaying VE morphology (WT F9 cells [4]; 500 nM): (−); number of cells in percent relative to cells grown in 0.1% ethanol (RARγ−/− F9 cells [5]; 50 nM): 100%; number of cells in percent relative to cells grown in 0.1% ethanol (RARγ−/− F9 cells [5]; 500 nM): 100%; number of cells in percent relative to cells grown in 0.1% ethanol (RARα−/− F9 cells [6]; 500 nM): 100%; number of cells in percent relative to cells grown in 0.1% ethanol (WT F9 cells [7]; 50 nM): 100%; number of cells in percent relative to cells grown in 0.1% ethanol (WT F9 cells [7]; 500 nM): 100%; number of cells in percent relative to cells grown in 0.1% ethanol (RXRα−/− F9 cells [8]; 50 nM): 100%; number of cells in percent relative to cells grown in 0.1% ethanol (RXRα−/− F9 cells [8]; 500 nM): 100%; proportion of outer layer of cells displaying VE morphology (RARγ−/− F9 cells [9]; 500 nM): ± (not more than 10%); number of cells in percent relative to cells grown in 0.1% ethanol (RXRα−/−/RARγ−/− F9 cells; 500 nM): 120%; proportion of apoptotic nuclei and subcellular fragments (Hoechst 33258) (RARγ−/− F9 cells [10]; 500 nM): (−); proportion of apoptotic nuclei and subcellular fragments (Hoechst 33258) (WT F9 cells [11]; 500 nM): (−)
CC1(C)CCC(C)(C)c2cc([C@@H](O)C(=O)Nc3ccc(C(=O)O)cc3F)ccc21 [RARγ agonist] | 100 | 49 | + (>1-10%) | +++ (more than 80%) | ± (not more than 10%) | +++ (more than 80%) | 100 | 100 | 100 | 30 | 100 | 37 | 100 | 51 | (−) | (−) | 100 | 100 | (−) | + (>1-10%) | proportion of apoptotic nuclei and subcellular fragments (Hoechst 33258) (RXRα−/− F9 cells [12]): ±* (asterisks less than that in combination with 1 μM panRXR agonist); proportion of apoptotic nuclei and subcellular fragments (Hoechst 33258) (RXRα−/−/RARα−/− F9 cells [13]): ±* (asterisks less than that in combination with 1 μM panRXR agonist); proportion of apoptotic nuclei and subcellular fragments (Hoechst 33258) (RARα−/− F9 cells [2]; 10 nM): (−); proportion of outer layer of cells displaying VE morphology (RARα−/− F9 cells [3]; 1 nM): (−); proportion of outer layer of cells displaying VE morphology (RARα−/− F9 cells [3]; 10 nM): +++ (more than 80%); proportion of outer layer of cells displaying VE morphology (WT F9 cells [4]; 1 nM): (−); proportion of outer layer of cells displaying VE morphology (RARγ−/− F9 cells [9]; 1 nM): (−); proportion of outer layer of cells displaying VE morphology (RXRα−/−/RARα−/− F9 cells [14]; 10 nM): + (10-50%); proportion of outer layer of cells displaying VE morphology (RXRα−/−/RARα−/− F9 cells [14]; 100 nM): +++ (more than 80%); proportion of outer layer of cells displaying VE morphology (RXRα−/− F9 cells [15]; 10 nM): + (10-50%); proportion of outer layer of cells displaying VE morphology (RXRα−/− F9 cells [15]; 100 nM): +++ (more than 80%); proportion of apoptotic nuclei and subcellular fragments (Hoechst 33258) (WT F9 cells [11]; 10 nM): (−)
